Measurements from patent US11685741B2, “Fluorescent probes” (University of Massachusetts, priority 2017, dated 2023).

Assays:
[1] = Binding studies of sensor with Fe3+ (Job's plot, titration, EDTA reversibility)
Description: Job's method and UV-vis spectra were applied to study the binding stoichiometry between Rh-PK and Fe^3+ and monitored by the absorbance at 555 nm. […] The binding constant of this complex was calculated following a method reported previously (G. E. Tumambac, et al., Tetrahedron 2004, 60, 11293-11297), using absorption values at […] by the equations described below, and was determined to be 1.54×10^7 […].
The equations below was used to calculate the binding constants with stoichiometry of 1:1. L+S↔LS where L=sensor, S=Fe3+ and LS=sensor-Fe^3+ complex. The apparent binding constant is given by
[formula] Fe is the fraction of L that formed a complex, [LS]e is concentration at equilibrium, [L]0 is the initial concentration. Au, Am, and Ac are the absorbances of solutions of L (before any Fe^3+ was added), during the titration and at saturation, respectively. The concentration of free Fe^3+ at equilibrium, [S]e, is found with the following identity. [S]e=[S]o−[LS]e=[S]o−Fc[L]o The apparent binding constant K can then be calculated from
Reversibility experiments were carried out by adding EDTA to the complex in ACN/Tris-HCl buffer (10 mM, pH 7.3, v/v 3:1). […]
The stoichiometry of RhHPA-Fe^3+ was measured using Job's plot and mole ratio plots methods. B. Valeur, Molecular Fluorescence: Principles and Applications, Wiley-VCH. […] To determine the binding constant of chemosensor, a fluorescence titration of different amounts of Fe^3+ into the acetonitrile solution of sensor was carried out. […] The determination of the binding constant of RhHPA was calculated using the following equation: F−Fmin=[…](Fmax−Fmin)/Kd where F is the observed fluorescence, Fmax is the maximum fluorescence for the RhHPA-Fe^3+ complex at concentration of the equal reacted between sensor and metal cation, Fmin is the fluorescence intensity for occurring RhHPA-Fe^3+.
Absorption enhancement observation at 558 nm was plotted against the molar value of the [Fe^3+]/[Fe^3+]+RhHPA and [Fe^3+]/RhHPA. […] Binding constant of fluorescent sensor “RhHPA” was calculated and it was found as K=1.27×10^7 M^−1. […]

[2] = system: primary human fibroblast cells (ws1); assay: Confocal imaging of Fe2+ with Rh6GD in ws1 cells; format: cell-based
Description: Human primary fibroblast ws1 cells were grown at 37° C. in a humid atmosphere of 5% CO2 atmosphere in eagle's minimum essential medium (EMEM, ATCC) supplemented with 10% fetal bovine serum (FBS, ATCC). Cultures were divided into 1:2 every 48 h to an approximate cell density of 1.21 million cells/ml and used for experiments after 24 h.
A Zeiss LSM 710 laser-scanning confocal microscope system was used for cell imaging experiments. 40× oil-immersion objective lens were used to perform all the experiments. For imaging with the Rh6GD sensor, excitation wavelength of the laser was 543 nm and emissions were collected over the range 545-625 nm. For images with MitoTracker Green FM, LysoTracker Deep Red, excitation wavelengths recommended by the manufacturer were 488 nm for MitoTracker, 633 nm for LysoTracker. Emissions were integrated at 492-535 nm (MitoTracker), 650-800 nm (LysoTracker), respectively.
Ws1 cells, at an approximately density of 1.2 million/ml in complete EMEM medium, were incubated with 100 μM ferrous ammonium sulfate (FAS, Fe (NH4)2(SO4)2 from a 10 mM stock solution) for overnight at 37° C. in a humid atmosphere of 5% CO2 and then the cells were washed with fresh EMEM medium to remove excess Fe^2+. Then cells were incubated with Rh6GD (10 μM, from 500 μM stock solution in DMF) at 37° C. for 30 min and then cells were washed with EMEM media and then imaged. In addition, some cells were treated firstly with 100 μM Fe^2+ overnight and then the cells were washed with fresh EMEM medium. For chelation experiments, Fe^2+-loaded cells or untreated cells were incubated with 1 mM 2,2′-bipyridyl (Bpy) at 37° C. for 30 min, then sensor was added followed by washing with the media, and then imaging was done. Controls were imaged without incubation with Fe^2+ or 2,2′-bipyridyl.
The ability of Rh6GD to detect Fe^2+ in primary human fibroblast cells (ws1) was investigated by using confocal microscopy. […] For Fe^2+ repleting conditions, live ws1 cells were incubated with 100 μM of ferrous ammonium sulfate (Fe (NH4)2(SO4)2) at 37° C. for overnight followed by washing with EMEM medium to remove excess Fe^2+ and then 10 μM of Rh6GD was added to the culture media and was incubated at 37° C. for 30 min. […] This fluorescent intensity is almost the same as that of cells without Fe^2+ or Bpy treatment (FIG. 34B).
To explore this, the distribution of exchangeable Fe^2+ pools in live ws1 cells were further investigated using Rh6GD, together with colocalization experiments using other dyes such as MitoTracker Green FM (a green fluorescent dye which localizes to mitochondria in live cells regardless of mitochondrial membrane potential) and LysoTracker Deep Red (a fluorescent dye that stains acidic compartments such as endosomes and lysosomes in live cells). […]

| SMILES | binding constant ([1]; 1:1 Fe^3+-Rh-PK complex, from absorption titration) [M⁻¹] | apparent binding constant ([1]; 1:1 sensor-Fe^3+ complex, ACN/Tris-HCl buffer pH 7.3) [M⁻¹] | fluorescence of cells with sensor only ([2]; 10 μM Rh6GD) | fluorescence of cells treated with Fe^2+ then Bpy ([2]; 100 μM Fe^2+ overnight, Bpy, 10 μM Rh6GD, versus Fe^2+ supplement) | fluorescence of Fe^2+-treated cells versus unsupplemented ([2]; 100 μM ferrous ammonium sulfate overnight, then 10 μM Rh6GD 30 min) | fluorescence of Bpy-treated cells ([2]; Bpy, then 10 μM Rh6GD, versus sensor only) |
| --- | --- | --- | --- | --- | --- | --- |
| CCN(CC)c1ccc2c(c1)Oc1cc(N(CC)CC)ccc1C21c2ccccc2C(=O)N1CC/N=C(\C)c1cccc(C(C)=O)n1 [Rh-PK, (E)-2-(2-((1-(6-acetylpyridin-2-yl)ethylidene)amino)ethyl)-3′,6′-bis(diethylamino)spiro[isoindoline-1,9′-xanthen]-3-one] | 1.54e+07 | 1.54e+07 | – | – | – | – |
| CCNc1cc2c(cc1C)C1(c3cc(C)c(NCC)cc3O2)c2ccccc2C(=O)N1/N=C/C=C/c1ccc(N(C)C)cc1 [Rh6GD, 2-(((1E,2E)-3-(4-(dimethylamino)phenyl)allylidene)amino)-3′,6′-bis(ethylamino)-2′,7′-dimethylspiro[isoindoline-1,9′-xanthen]-3-one] | – | – | weak fluorescence | marked decrease in fluorescent intensity | significant increase in fluorescent signals | significantly decrease in fluorescence signal |
